“Also recorded” adds a separate entry of the source.
What was measured:
[1] = cited from earlier work
Histone Deacetylase = conditions: cited from earlier work
adenylate cyclase = conditions: by inhibiting adenylate cyclase; cited from earlier work
[2] = tested on: isoproterenol induced cardiac hypertrophy; test: Isoproterenol-induced cardiac hypertrophy in mice: heart size, heart weight ratios, histology; assay type: in vivo, C57BL/6 male mice
Procedure: (§1) All animal and mouse studies and/or models of cardiac hypertrophy were conducted in accordance with the standards set forth in the Guide for the Care and Use of Laboratory Animals (NIH Publication No. 85-23, revised 1996) and were approved by our Institutional Animal Care and Use Committee. Eight week-old C57BL/6 male mice (Jackson Laboratory) were given isoproterenol (Sigma Aldrich) at 40 mg·kg^−1d^−1 administered S.Q. via micro-osmotic pump insertion (ALZET 1007D). Briefly, animals were anesthetized with isoflurane (1.5%) and oxygen (98.5%) using an animal ventilator (Surgivet), an incision (1 cm) was made on the back between the shoulder blades, and micro-osmotic pumps containing isoproterenol dissolved in a saline solution (0.9% NaCl) were inserted into the infrascapular subcutaneous tissue.
Doxycycline was given in drinking water at 6 mg mL^−1 (Sigma Aldrich) containing 5% sucrose unless specified otherwise. Control animals were given 5% sucrose water. […] Water was added to the mix 0.8:1 (water weight to powder weight ratio) and the resulting paste diced and heated at 60° C. overnight.
Histology. Animal hearts were excised, fixated with 10% phosphate-buffered formalin for 48 hours, and then embedded in paraffin. Cross-sectional slices in the minor axis were obtained with a microtome and the slices stained using Mayer's hematoxylin and eosin (H&E).
Statistical analysis of the data includes values presented are expressed in mean ±S.E.M. All comparisons between groups were performed using a one way ANOVA followed by the Newman-Keuls test. Differences were considered to be statistically significant when P<0.05.
P-values are obtained from a one way ANOVA. […] The control group (isoproterenol) received regular chow and 7% sucrose water. Each circle is the Heart to Body weights ratio obtained for a mouse, while the dashes are the average for each group.

[3] = tested on: positive chronotropic effect induced by isoproterenol; test: Heart rate of isoproterenol-treated mice; assay type: in vivo; conditions: day 9 of treatment, vs isoproterenol-only mice; n=5; FIG. 5
Procedure: as §1
Doxycycline was given in drinking water at 6 mg mL^−1 (Sigma Aldrich) containing 5% sucrose unless specified otherwise. Control animals were given 5% sucrose water. […] Briefly, chow was crunched in powder and then mixed with carbamazepine. […]
The heart rates of the mice were measured before induction of cardiac hypertrophy and after treatment on day 9, which was 1 day before they were sacrificed. […] Heart rates were measured before the experiment (t0) and 1 day before the sacrifice. […]

CREB = test: Western blot of phosphorylation status of CREB; assay type: in vivo; conditions: mice with isoproterenol-induced cardiac hypertrophy
Procedure: Western Blots. The antibodies for Adra1b and GAPDH were purchased from Santa Cruz Biochemical Co. (Santa Cruz, Calif.). All other antibodies were purchased from Cell Signaling Technology, and Western blot analysis was performed as previously described (21). Briefly, equal amounts of total protein were loaded and separated on sodium dodecyl sulfate (SDS)—10% polyacrylamide gels and then transferred to nitrocellulose membranes. Membranes were blocked with 5% milk and washed in 1× Tween (0.1%)—Tris-buffered saline (TTBS) three times for 5 minutes each. Primary antibodies diluted 1:1000 in 5% milk or bovine serum albumin (BSA) (prepared in 1×TTBS) were allowed to incubate overnight at 4° C. After washing, horseradish peroxidase (HRP)-conjugated secondary antibody (Cell Signaling Technology) was diluted 1:2000 in 5% milk and applied to membranes. Subsequently, membranes were washed and a chemiluminescence substrate (Pierce, Rockford Ill.) was applied and allowed to incubate at room temperature for 5 minutes.

[4] = doxycycline co-administered with carbamazepine; cited from earlier work

Compound | blood pressure and heart rates ([1]; epileptic patients) | cardiovascular toxic effects ([1]; in vivo) | inhibition of Histone Deacetylase (HDAC) (Histone Deacetylase) | basal and forskolin-stimulated cAMP production (adenylate cyclase) | hypertrophic phenotype, heart cross sections (histology) ([2]; isoproterenol mice, H&E cross sections, FIG. 2) | Heart to Body weights ratio ([2]; isoproterenol mice, 10 days, doxycycline 10 mg/mL in 7% sucrose water, carbamazepine […] in chow, FIG. 3, carbamazepine vs control P<0.01) | Heart to Tibia length ratio ([2]; isoproterenol mice, carbamazepine in chow or doxycycline in water vs no drug, FIG. 1, carbamazepine vs control P<0.0001) | heart weight ([2]; single isoproterenol and carbamazepine treated mouse, FIG. 2C (untreated isoproterenol mouse 0.1800, wild type 0.1305)) | heart rate [3] | levels of phosphorylated CREB (CREB) | half-life [4]
NC(=O)N1c2ccccc2C=Cc2ccccc21 [carbamazepine] | lower blood pressure and heart rates | no cardiovascular toxic effects | inhibit Histone Deacetylase | abrogate both basal and forskolin-stimulated cAMP production | structure that is relatively well preserved; also recorded: reduced the hypertrophic phenotype | significantly decreased | significantly lower; also recorded: significantly decreased | 0.1415 grams | significantly lower heart rates; also recorded: attenuation of the positive chronotropic effect | Almost no phosphorylated CREB was detected | –
C[C@H]1c2cccc(O)c2C(=O)C2=C(O)[C@]3(O)C(=O)C(C(N)=O)=C(O)[C@@H](N(C)C)[C@@H]3[C@@H](O)[C@@H]21 [doxycycline] | – | – | – | – | – | – | – | – | – | – | shorter
